Results as given in US12685725B2, “Pridopidine for the treatment of mitochondrial-associated diseases and disorders and endoplasmic reticulum (ER) stress” (PRILENIA NEUROTHERAPEUTICS LTD., priority 2019, dated 2026).
Read-outs that look alike come from different tables or passages of the source.

Key:
[1] = system: Nrf2/ARE genes (Nqo1, Hmox1, GCLc) in HD lymphoblasts; conditions: 5 μM, 24 h
Description: The qPCR was performed using the ABI Prism 7500 Sequence Detection System (Applied Biosystems). Each sample was run in triplicate. Gene expression was normalized to Rpl13a or UBC mRNA.

HD-NSCs = assay: cells; conditions: Homo sapiens, 24 h, read-out: reduction of the increase in H2O2 levels induced by complex III inhibition
Description: NSCs were plated at 30,000 cells/well in 96-well assay plates coated with Geltex® for 24 h at 37° C. Afterwards, NSCs were incubated for another 24 h with 1 μM pridopidine. […] MitoPY1 fluorescence was obtained with a Microplate Spectrofluorometer Gemini EM (Molecular Devices, USA) using wavelength parameters described above. Basal levels were measured for 10-15 minutes followed by exposure to 3 μM myxothiazol (mitochondrial complex III inhibitor. Sigma-Aldrich, catalog no: T5580) and measured for an additional 30 minutes. The results were calculated as RFU per 30,000 cells.

[2] = system: HD-iPSC-derived neural stem cells (HD-NSCs)
Description: Neural induction occurred between day 0 and days 12-15. From day 0 to day 5, cells were maintained in iPSC medium without FGF2 and incubated with 5 μM dorsomorphin and 10 μM SB431542. Medium was changed every other day. […] Between days 12 and 15, fields full of rosettes became morphologically visible. To allow the cells to differentiate, cells were replated in Geltrex® coated 12-well plates. For detaching, 500 μl of 1×Accutase® (Thermo Fisher Sci., catalog no: A1110501) was added to the plate and incubated at 37° C. in 5% CO2, for 15-20 min. Accutase was diluted in DMEM/F12 medium pre-warmed to 37° C. Cells were collected and spun for 3 min at 200×g at room temperature, and resuspended in 200 μl of media into 12-well plates. […] Cells were incubated overnight at 37° C., 5% CO2. Cells were passaged every 2-3 days for no more than 10-12 passages.

[3] = system: CHOP, GADD34, ATF6, XBP1s in cells expressing myc-Htt96Q or myc-Htt20Q
Description: Total cell RNA was extracted with TRIzol reagent (Invitrogen) according to the manufacturer's instructions. […] Real-time PCR was carried out using a CFX Connect Real-Time PCR Detection System (BioRad) and the amplifications were done using the SYBR Green PCR Master Mix (Cat.No. pb089617-100-1) (Pcrbio). Reactions were run in triplicates in three independent experiments. Housekeeping gene GAPDH was used as an internal control to normalize the variability of expression levels.
(§1) Cells were lysed in PBS containing 1% Triton X-100, 0.5% sodium deoxycholate with protease inhibitors and centrifuged to pellet insoluble aggregates, debris and nuclei. Phosphatase inhibitor cocktail 2 and 3 and 10 mM […] phosphate were added to the lysis buffer to inhibit phosphatases for detection of phosphorylated proteins. Supernatants were separated from pellets and incubated in loading buffer for 5 min at 100° C., pellets were incubated for 10 min at 100° C. After SDS-PAGE and transfer to nitrocellulose membrane, blocking was done in 5% low-fat milk and 0.1% Tween-20 in PBS for 1 h. Incubation with the primary antibody was overnight at 4° C. and after three washes in 0.1% Tween-20 in PBS, incubation with the appropriate secondary antibody was for 1 h at room temperature. After washing, enhanced chemiluminescence assay was performed and the membrane was exposed and quantified in a Bio-Rad ChemiDocXRS Imaging System (Bio-Rad, Hercules, CA).

[4] = system: S1R/BiP colocalization in NIH 3T3 cells
Description: Colocalization of S1R and mitochondria was assessed in NIH 3T3 cells expressing WT myc-Htt20Q or mutant myc-Htt96Q. Cells were then fixed, permeabilized and reacted with mouse anti-myc and rabbit anti-S1R. Images were pseudo-colored to better visualize the colocalization of S1R and MitoTracker.
(§2) Transfections of HEK 293 cells were carried out according to the calcium phosphate method. STHdh^Q7/7 cells are a murine striatal cell line with a stable knock-in of the full-length wild type (WT) human Htt containing a polyglutamine stretch of 7 glutamines (Trettel et al. 2000). […] No cell line used is listed as a commonly misidentified cell line. Cell lines were not authenticated. To reduce any risk of cross-contamination they were grown for a limited number of passages. Transient transfections of NIH 3T3 and STHdh^Q7/7 cells were performed using an MP-100 Microporator (Digital Bio) or ViaFect™ Transfection Reagent (Cat.No. E4981) (Promega), according to the manufacturer's protocols.
(§3) Briefly, cells grown for 24 h after transfection on coverslips in 24-well plates were fixed with 3% paraformaldehyde, followed by blocking with 50 mM glycine in PBS and normal goat IgG in PBS/2% BSA. The cells were incubated with primary antibodies for 1 h, washed and incubated for 30 min with secondary antibodies, followed by washes. Nuclei were stained with 4′,6-diamidino-2-phenylindole (Cat.No. F6057) (Sigma). Confocal microscopy was done on a Zeiss laser scanning confocal microscope (LSM 510; Carl Zeiss, Jena, Germany) as described previously. ImageJ was used to quantify fluorescence intensity in images of treated individual cells compared to untreated cells with and without Htt96Q-mCherry aggregates and to calculate Mander's coefficients for colocalization studies.

[5] = system: WT and YAC128 cortical/striatal co-cultures; conditions: 24 h
Description: Oxygen consumption rate (OCR) in WT and hemizygous YAC128 cortical/striatal co-cultures and NSCs was measured using Seahorse XFe-24/96 flux analyzers (Seahorse Bioscience, Billerica, MA, USA) following the manufacturer's instructions. […] Pridopidine (0.1, 1 and/or 5 μM) was added, when indicated in the graphs, 24 h before the experiment. The sensor cartridge plate was incubated with immersed sensors in a non-CO2 incubator at 37° C. for ~16 h (overnight). […] The cell medium was aspirated gently to avoid disturbing cell monolayers. […] Accordingly, mitochondrial basal respiration, maximal respiration and ATP production was automatically calculated and recorded by the Seahorse software. Data was normalized for protein levels.

S1R in STHdh^Q7/7 cells [6] = target: S1R in STHdh^Q7/7 cells (Mus musculus, UniProt O55242); conditions: 20 h; P (150 μM vs. 0)<0.05
Description: as §2, §1, §3

S1R in STHdh^Q7/7 cells [7] = system: S1R in STHdh^Q7/7 cells
Description: as §2, §1, §3

[8] = cells expressing mutant Htt96Q, 48 h

Sequence of S1R in STHdh^Q7/7 cells (Mus musculus, UniProt O55242) (O55242 whole entry): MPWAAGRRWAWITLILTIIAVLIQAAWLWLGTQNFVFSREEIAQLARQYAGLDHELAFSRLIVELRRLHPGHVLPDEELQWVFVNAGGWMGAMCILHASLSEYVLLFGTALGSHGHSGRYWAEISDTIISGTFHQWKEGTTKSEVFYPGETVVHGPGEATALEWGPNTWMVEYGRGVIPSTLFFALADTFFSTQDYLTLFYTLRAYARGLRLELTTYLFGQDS

SMILES: CCCN1CCC(c2cccc(S(C)(=O)=O)c2)CC1 [Pridopidine, 4-[3-(methylsulfonyl)phenyl]-1-propyl-piperidine]
- GCLc expression (mRNA) [1]: shows a trend towards upregulation
- expression of Nqo1 (mRNA) ([1]; p=0.0010): significantly upregulates
- expression of Hmox1 (mRNA) ([1]; p=0.0308): significantly upregulates
- inhibition at 1 µM (HD-NSCs): ~42%
- ATP production [2]: shows a trend towards increasing ATP production
- maximal respiration [2]: also increases
- mitochondrial basal respiration [2]: also increases mitochondrial basal
- reduction in ATF6 fragment ([3]; Htt96Q-expressing cells, 3 μM): 35%
- reduction in XBP-1s mRNA (IRE1 pathway) ([3]; Htt96Q-expressing cells, 3 μM): 25%
- CHOP and GADD34 levels ([3]; cells expressing Htt20Q): does not affect these factors
- reduction of CHOP levels [3, 8]: 2.5 fold
- reduction of GADD34 levels [3, 8]: 7 fold
- S1R/BiP colocalization ([4]; cells expressing Htt20Q): does not affect S1R/BiP colocalization
- S1R/BiP colocalization (BiP-RFP) ([4]; cells expressing Htt96Q aggregates, 150 μM): restores S1R/BiP colocalization in cells expressing Htt96Q aggregates to normal, unstressed levels
- colocalization of S1R and BiP-GFP ([4]; cells expressing myc-Htt96Q, 150 μM): shows a trend towards increasing colocalization
- maximal respiration ([5]; HD Y128 corticostriatal neurons, 1 μM, p=0.0061): rescues maximal
- maximal respiration ([5]; HD Y128 corticostriatal neurons, 5 μM, p=0.002): rescues maximal
- ATP production ([5]; HD Y128 corticostriatal neurons, 5 μM, p=0.0358): rescues
- basal respiration ([5]; HD Y128 corticostriatal neurons, 1 and 5 μM): non-significant trend towards increasing basal respiration
- maximal respiration ([5]; WT cells, 1 and 5 μM): increases maximal respiration in both WT and Y128 cells
- mitochondrial basal respiration ([5]; WT neurons, 1 μM, p=0.0058): enhances mitochondrial basal respiration
- mitochondrial basal respiration ([5]; WT neurons, 5 μM, p=0.0016): enhances mitochondrial basal respiration
- ATP production ([5]; WT neurons, 5 μM, p=0.02): enhances
- Triton-insoluble levels of endogenous S1R (S1R in STHdh^Q7/7 cells [6]): also those of the endogenous S1R
- Triton-insoluble levels of S1R-YFP (S1R in STHdh^Q7/7 cells [7]; 20 h, starting 4 h post-transfection): increases the Triton-insoluble levels of S1R-YFP
- increase of S1R-YFP levels above the levels in the untreated cells (S1R in STHdh^Q7/7 cells [7]; in the presence of Htt96Q-mCherry, dose-dependent, up to 150 μM, 20 h): up to 47%
- pattern (subcellular localization) of S1R-YFP (S1R in STHdh^Q7/7 cells [7]; treatment for 20 h): does not change the pattern of S1R-YFP
